System: ALP in NHAC (normal human articular chondrocytes)
Test: Alkaline Phosphatase (ALP) activity assay: ALP staining and quantitation in NHACs (prevention of chondrocyte hypertrophy)
Assay type: cell-based
Details: Chondrocyte, 288 h, human IL-1 beta 10 ng/mL, 12 days; for IC50: Fast Blue RR staining, high content imaging; for Emax: read-out: ALP in NHAC (% Efficacy)
Procedure: The compounds of the present invention were evaluated in the Alkaline Phosphatase (ALP) activity assay to determine the ability of the compounds to prevent chondrocyte hypertrophy in normal human articular chondrocytes (NHACs).
Normal human articular chondrocytes (NHACs) were purchased from PromoCell (Heidelberg, Germany) and grown in Chondrocyte Growth Medium (CGM; Lonza, Walkersville, Md.).
NHACs were expanded in Chondrocyte Growth Medium (CGM) from Lonza until they reached a 60-80% confluency. To initiate differentiation, 7,500 cells were plated/well with indicated test compound dose in 384-well Cell Carrier Ultra plates (Perkin Elmer) with DMEM (SH30022—HyClone) containing 10% FBS (35-015-CV—Corning), 1% Pen/Strep antibiotics (SV30010—HyClone), and 1% Normocin (50 mg/mL—InvivoGen). Cells with test compounds were incubated at 37° C., 5% CO2 for 5 hours and then added human IL-1 beta (AF-200-1B—Peprotech) to each well at a final concentration of 10 ng/mL and incubated at 37° C., 5% CO2 for 12 days.
To detect the presence of hypertrophic cells, NHACs were fixed with 4% paraformaldehyde and Hoechst 33342 (Invitrogen) dye for 30 minutes, rinsed in PBS, then stained with Fast Blue RR Salt (F0500—Sigma) with Naphthol AS-MX Phosphate Alkaline Solution, 0.25% (855—Sigma-Aldrich).
The staining was imaged by fluoresecent microscopy, using the 561 nm wavelength, and/or quantified by high content imaging with the ImageXpress Confocal (Molecular Devices, Sunnyvale, CA). Data analyses were performed with a customized multiwavelength cell-scoring application The activity of the compounds of the present invention in the ALP assay is summarized in Table 2.

Row | SMILES | IC50 | Emax
1 | O=C(Nc1cc(C(F)(F)F)cc(Cl)n1)[C@]12C[C@@]1(c1ccnc(F)c1)[C@H]1O[C@@H]2C[C@@H]1O (racemic) [Example 4, rac-(1R,2R,4S,5R,6S)—N-(6-chloro-4-(trifluoromethyl)pyridin-2-yl)-4-(2-fluoropyridin-4-yl)-6-hydroxy-8-oxatricyclo[3.2.1.02,4]octane-2-carboxamide] | > 30 µM | 0%
2 | N#Cc1ccc(C(F)(F)F)cc1NC(=O)[C@]12C[C@@]1(c1ccnc(F)c1)[C@H]1O[C@@H]2C[C@@H]1O (racemic) [Example 78, rac-(1R,2R,4S,5R,6S)—N-(2-cyano-5-(trifluoromethyl)phenyl)-4-(2-fluoropyridin-4-yl)-6-hydroxy-8-oxatricyclo[3.2.1.02,4]octane-2-carboxamide] | > 30 µM | 40%
3 | COc1cc([C@@]23C[C@]2(C(=O)Nc2cccc(C(F)(F)F)c2C)[C@H]2C[C@H](O)[C@@H]3O2)ccn1 (racemic) [Example 27, rac-(1R,2R,4S,5R,6S)-6-hydroxy-4-(2-methoxypyridin-4-yl)-N-(2-methyl-3-(trifluoromethyl)phenyl)-8-oxatricyclo[3.2.1.02,4]octane-2-carboxamide] | > 30 µM | 0%
4 | CCOc1cc(C(F)(F)F)cc(NC(=O)[C@]23C[C@@]2(c2ccnc(OC)c2)[C@H]2O[C@@H]3C[C@@H]2O)n1 (racemic) [Example 25, rac-(1R,2R,4S,5R,6S)—N-(6-ethoxy-4-(trifluoromethyl)pyridin-2-yl)-6-hydroxy-4-(2-methoxypyridin-4-yl)-8-oxatricyclo[3.2.1.02,4]octane-2-carboxamide] | > 30 µM | 0%
5 | Cn1cc([C@@]23C[C@]2(C(=O)Nc2ccc(C(F)(F)F)cc2)[C@H]2C[C@H](O)[C@@H]3O2)c(C(F)(F)F)n1 (racemic) [Example 42, rac-(1R,2R,4S,5R,6S)-6-hydroxy-4-(1-methyl-3-(trifluoromethyl)-1H-pyrazol-4-yl)-N-(4-(trifluoromethyl)phenyl)-8-oxatricyclo[3.2.1.02,4]octane-2-carboxamide] | > 30 µM | 46%
6 | Cn1cc([C@@]23C[C@]2(C(=O)Nc2ccc(C(F)(F)F)c(F)c2)[C@H]2C[C@H](O)[C@@H]3O2)c(C(F)(F)F)n1 (racemic) [Example 41, rac-(1R,2R,4S,5R,6S)-N-(3-fluoro-4-(trifluoromethyl)phenyl)-6-hydroxy-4-(1-methyl-3-(trifluoromethyl)-1H-pyrazol-4-yl)-8-oxatricyclo[3.2.1.02,4]octane-2-carboxamide] | 3.1 µM | 84%
7 | Cn1cc([C@@]23C[C@]2(C(=O)Nc2cc(C(F)(F)F)cc(C4CC4)n2)[C@H]2C[C@H](O)[C@@H]3O2)c(C(F)(F)F)n1 (racemic) [Example 46, rac-(1R,2R,4S,5R,6S)—N-(6-cyclopropyl-4-(trifluoromethyl)pyridin-2-yl)-6-hydroxy-4-(1-methyl-3-(trifluoromethyl)-1H-pyrazol-4-yl)-8-oxatricyclo[3.2.1.02,4]octane-2-carboxamide] | 27 µM | 82%
8 | COc1cc(NC(=O)[C@]23C[C@@]2(c2ccnc(OC)c2)[C@H]2O[C@@H]3C[C@@H]2O)cc(C(F)(F)F)c1 (racemic) [Example 35, rac-(1R,2R,4S,5R,6S)-6-hydroxy-N-(3-methoxy-5-(trifluoromethyl)phenyl)-4-(2-methoxypyridin-4-yl)-8-oxatricyclo[3.2.1.02,4]octane-2-carboxamide] | > 30 µM | 0%
9 | COc1cc([C@@]23C[C@]2(C(=O)Nc2ccc(F)c(C(F)(F)F)c2)[C@H]2C[C@H](O)[C@@H]3O2)ccn1 (racemic) [Example 32, rac-(1R,2R,4S,5R,6S)—N-(4-fluoro-3-(trifluoromethyl)phenyl)-6-hydroxy-4-(2-methoxypyridin-4-yl)-8-oxatricyclo[3.2.1.02,4]octane-2-carboxamide] | > 30 µM | 4%
10 | COc1cc([C@@]23C[C@]2(C(=O)Nc2cc(C(F)(F)F)cc(C)n2)[C@H]2C[C@H](O)[C@@H]3O2)ccn1 (racemic) [Example 24, rac-(1R,2R,4S,5R,6S)-6-hydroxy-4-(2-methoxypyridin-4-yl)-N-(6-methyl-4-(trifluoromethyl)pyridin-2-yl)-8-oxatricyclo[3.2.1.02,4]octane-2-carboxamide] | > 30 µM | 25%
11 | O=C(Nc1cc(F)cc(C(F)(F)F)c1)[C@]12C[C@@]1(c1ccnc(F)c1)[C@H]1O[C@@H]2C[C@@H]1O (racemic) [Example 16, rac-(1R,2R,4S,5R,6S)—N-(3-fluoro-5-(trifluoromethyl)phenyl)-4-(2-fluoropyridin-4-yl)-6-hydroxy-8-oxatricyclo[3.2.1.02,4]octane-2-carboxamide] | > 30 µM | 34%
12 | O=C(Nc1cccc(C(F)(F)F)c1)[C@]12C[C@@]1(c1ccnc(C(F)(F)F)c1)[C@H]1O[C@@H]2C[C@@H]1O (racemic) [Example 66, rac-(1R,2R,4S,5R,6S)-6-hydroxy-N-(3-(trifluoromethyl)phenyl)-4-(2-(trifluoromethyl)pyridin-4-yl)-8-oxatricyclo[3.2.1.02,4]octane-2-carboxamide] | 24 µM | 62%
13 | COc1ccc(NC(=O)[C@]23C[C@@]2(c2cn(C)nc2C(F)(F)F)[C@H]2O[C@@H]3C[C@@H]2O)cc1C(F)(F)F (racemic) [Example 60, rac-(1R,2R,4S,5R,6S)-6-hydroxy-N-(4-methoxy-3-(trifluoromethyl)phenyl)-4-(1-methyl-3-(trifluoromethyl)-1H-pyrazol-4-yl)-8-oxatricyclo[3.2.1.02,4]octane-2-carboxamide] | > 30 µM | 27%
14 | COc1cc([C@@]23C[C@]2(C(=O)Nc2ccc(OC)c(C(F)(F)F)c2)[C@H]2C[C@H](O)[C@@H]3O2)ccn1 (racemic) [Example 34, rac-(1R,2R,4S,5R,6S)-6-hydroxy-N-(4-methoxy-3-(trifluoromethyl)phenyl)-4-(2-methoxypyridin-4-yl)-8-oxatricyclo[3.2.1.02,4]octane-2-carboxamide] | > 30 µM | 0%
15 | O=C(Nc1cc(Cl)cc(C(F)(F)F)c1)[C@]12C[C@@]1(c1ccnc(F)c1)[C@H]1O[C@@H]2C[C@@H]1O (racemic) [Example 19, rac-(1R,2R,4S,5R,6S)—N-(3-chloro-5-(trifluoromethyl)phenyl)-4-(2-fluoropyridin-4-yl)-6-hydroxy-8-oxatricyclo[3.2.1.02,4]octane-2-carboxamide] | > 30 µM | 0%
16 | Cc1ccc(C(F)(F)F)cc1NC(=O)[C@]12C[C@@]1(c1ccnc(F)c1)[C@H]1O[C@@H]2C[C@@H]1O (racemic) [Example 13, rac-(1R,2R,4S,5R,6S)-4-(2-fluoropyridin-4-yl)-6-hydroxy-N-(2-methyl-5-(trifluoromethyl)phenyl)-8-oxatricyclo[3.2.1.02,4]octane-2-carboxamide] | > 30 µM | 40%
17 | O=C(Nc1ccc(C(F)(F)F)c(Cl)c1)[C@]12C[C@@]1(c1ccnc(F)c1)[C@H]1O[C@@H]2C[C@@H]1O (racemic) [Example 3, rac-(1R,2R,4S,5R,6S)—N-(3-chloro-4-(trifluoromethyl)phenyl)-4-(2-fluoropyridin-4-yl)-6-hydroxy-8-oxatricyclo[3.2.1.02,4]octane-2-carboxamide] | 12 µM | 71%
18 | N#Cc1cc(NC(=O)[C@]23C[C@@]2(c2ccnc(F)c2)[C@H]2O[C@@H]3C[C@@H]2O)cc(C(F)(F)F)c1 (racemic) [Example 77, rac-(1R,2R,4S,5R,6S)—N-(3-cyano-5-(trifluoromethyl)phenyl)-4-(2-fluoropyridin-4-yl)-6-hydroxy-8-oxatricyclo[3.2.1.02,4]octane-2-carboxamide] | > 30 µM | 29%
19 | Cc1cc(C(F)(F)F)cc(NC(=O)[C@]23C[C@@]2(c2cn(C)nc2C(F)(F)F)[C@H]2O[C@@H]3C[C@@H]2O)n1 (racemic) [Example 47, rac-(1R,2R,4S,5R,6S)-6-hydroxy-4-(1-methyl-3-(trifluoromethyl)-1H-pyrazol-4-yl)-N-(6-methyl-4-(trifluoromethyl)pyridin-2-yl)-8-oxatricyclo[3.2.1.02,4]octane-2-carboxamide] | > 30 µM | 36%
20 | O=C(Nc1ccc(F)c(C(F)(F)F)c1)[C@]12C[C@@]1(c1ccnc(F)c1)[C@H]1O[C@@H]2C[C@@H]1O (racemic) [Example 15, rac-(1R,2R,4S,5R,6S)—N-(4-fluoro-3-(trifluoromethyl)phenyl)-4-(2-fluoropyridin-4-yl)-6-hydroxy-8-oxatricyclo[3.2.1.02,4]octane-2-carboxamide] | > 30 µM | 5%
21 | COc1cc([C@@]23C[C@]2(C(=O)Nc2cc(C)cc(C(F)(F)F)c2)[C@H]2C[C@H](O)[C@@H]3O2)ccn1 (racemic) [Example 29, rac-(1R,2R,4S,5R,6S)-6-hydroxy-4-(2-methoxypyridin-4-yl)-N-(3-methyl-5-(trifluoromethyl)phenyl)-8-oxatricyclo[3.2.1.02,4]octane-2-carboxamide] | 10 µM | 74%

From patent US12365692B2, “6-hydroxy-8-oxatricyclo[3.2.1.02,4]octane-2-carboxamide derivatives for inducing chondrogenesis for treating joint damage” (NOVARTIS AG, priority 2018, dated 2025)
